Usually Ki stands for a dissociation constant, usually derived from enzyme kinetics or from competition with a known ligand. As a reminder, the melting point is the temperature of the solid-liquid transition. A word on the Kd: it is the concentration at which binding is half-saturated. The low end stands for tighter binding, the high end for weaker binding.

Data set [1] addresses β-amyloid deposits. Conditions: values from cited documents; read-out: binding affinity (Ki); cited from earlier work.
The target in data set [2] is T1, β-amyloid (Aβ1-42) fibrils (Homo sapiens, UniProt P05067).
T1 construct: β-Amyloid peptide (Aβ1-42, 1 mg, Bachem); purchased Bachem
T1 sequence (P05067 672-713 limits assumed): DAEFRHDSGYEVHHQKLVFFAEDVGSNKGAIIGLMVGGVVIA
The data set can be described thus: Inhibitory binding assay against [125I]TZDM on β-amyloid (Aβ1-42) fibrils. Conditions: Aβ1-42 fibrils 10 nM, [125I]TZDM 0.05 nM, 10% ethanol, room temperature 3 hours, nonspecific binding with 2 μM ThT; read-out: Ki, relative binding affinity to [125I]TZDM (112). As for the experimental part:
(§1) β-Amyloid peptide (Aβ1-42, 1 mg, Bachem) was completely dissolved in 1 mL of DMSO, 9 mL of phosphate buffered saline (PBS) (pH 7.4) was added thereto and well mixed. The resulting mixture was incubated at 37° C. for 60 minutes to form β-amyloid fibrils, 0.5 mL was taken and transferred to each e-tube and placed into a refrigerator maintained at −80° C.
To determine whether β-amyloid peptide was properly formed into β-amyloid fibrils, 150 μL of 5 μM Thioflavin T (ThT) was added to 50 μL of incubated β-amyloid fibrils, the fluorescence intensity of ThT binding specifically to β-amyloid fibrils at excitation/emission wavelengths (λex/λem), e.g., 450 nm/480 nm, was detected using a spectrometer.
0.850 mL of 10% Ethanol was placed into 12 mm×75 mm borosilicate test tubes, and 50 μL of β-amyloid (Aβ1-42) fibrils were added such that the final reaction concentration became 10 nM. […] Here, the nonspecific binding was performed using 2 μM Thioflavin T (ThT).

For data set [3], the target named is T1, β-amyloid (Aβ1-42) fibrils. The data set can be described thus: Dissociation constant (Kd) of [125I]TZDM on β-amyloid fibrils. To be noted: Aβ1-42 fibrils 10 nM, 10% ethanol, room temperature 3 hours, nonspecific binding with 2 μM ThT. As for the experimental part:
as §1
Here, the nonspecific binding was performed using 2 μM Thioflavin T (ThT).

Regarding `[11CH3]Nc1ccc(-c2nc3ccc(O)cc3s2)cc1` [Control Group], the Ki in data set [1] is 2.8 nM.

`CN(C)c1ccc(-c2cc3ccc(OCCCF)cc3s2)cc1` [Example 17, 2-[4-(N,N-dimethylamino)phenyl]-6-(3-fluoropropoxy)benzothiophene] gave a melting point of 177.7 to 183 °C. The Ki in data set [2] was 7.41 nM.

Regarding `CC(=C(C#N)C#N)c1ccc2cc(N(C)CCF)ccc2c1` [[^18F]FDDNP], in data set [1], the Ki is 0.12 nM.

`CN(C)c1ccc(-c2cn3cc(I)ccc3n2)cc1` [[^123I/^125I]IMPY]: in data set [1], the Ki was 15 nM.

`CN(C)c1ccc(-c2nc3ccc([125I])cc3s2)cc1` [[^125I]TZDM, 2-[4-(N,N-dimethylamino)phenyl]-6-[^125I]iodobenzothiazole] displayed a Kd in data set [3] of 0.13 nM.

The values above are taken from patent US8497260B2, “2-arylbenzothiophene derivatives or pharmaceutically acceptable salts thereof, preparation method thereof, and pharmaceutical composition for the diagnosis or treatment of degenerative brain disease containing the same as active ingredient” (Industry-University Cooperation Foundation Sogang University, priority 2009, dated 2013).
